Starred links: 1 amine or outer side, 2 acyl side, 3 side chain; linkers in the order of their positions; H or OH if unused. Positions of bridges follow the written chain, without caps; N, C: chain ends. Non-standard residues stand in square brackets, D forms with d. Residues, ends and D or L forms follow the SMILES beside them. Groups on a side chain read outwards from the residue. *: point of attachment. Trp(1-Me) = Cn1cc(C[C@H](N)C(=O)O)c2ccccc21; C18 diacid = O=C(O)CCCCCCCCCCCCCCCCC(=O)*; γGlu = O=C(O)[C@H](CCC(=O)[*:2])N[*:1]; AEEA = NCCOCCOCC(=O)O; Sar = CNCC(=O)O

The test system of the assay is classical complement pathway. Description: In vitro haemolysis assay (inhibition of classical complement pathway). It counts as cell-based, human. The conditions noted are these: human serum, sensitized sheep red blood cells; Table 3, given as upper bounds; read-out: IC50, inhibition of hemolysis. The procedure: The in vitro effect of the compounds of the present invention was assessed by measuring their inhibitory effect of the classical complement pathway in a haemolysis assay. Briefly, compounds of the present invention and reference compounds were dissolved in DMSO and diluted in Tris/Casein Assay Buffer (10 mM Tris, 145 mM NaCl, 0.5 mM MgCl2, 0.15 mM CaCl2), and 0.1% W/V Casein, adjusted to pH 7.4) as 9-point serial dilutions in a 96 well plate. Sensitized sheep red blood cells (RBC) coated with rabbit anti-sheep erythrocyte antiserum (Complement Technology, Inc., TX, USA) were washed in Tris/Casein Assay Buffer. […] from each well of diluted compound was added to a 96-well plate containing 50 μL diluted human serum (Complement Technology, Inc., TX, USA) and incubated for 15 minutes at room temperature. The serum dilution factor was optimized for every serum batch to obtain 70-90% of maximal haemolysis using the protocol. Then 50 μL sensitized sheep red blood cells were added to all wells (10^7 per well). After 30 minutes of incubation at 37 QC with gentle agitation, the reaction was stopped by addition of 50 μL Tris STOP Buffer per well (10 mM EDTA, 10 mM Tris, 145 mM NaCl adjusted to pH 7.4). The RBCs were then removed by centrifugation and the resulting supernatant measured for hemolysis by absorbance at 405 nm. The response was normalized relative to a positive and negative control (vehicle) to calculate the IC50 from the concentration response curve using the 4-parameter logistic (4PL) nonlinear model for curve fitting.
As for `CC[C@H](C)[C@@H]1NC(=O)[C@@H](NC(=O)[C@H](Cc2ccc(O)cc2)NC(=O)[C@H](C)NC(=O)[C@H](CO)NC(=O)CNC(=O)[C@H](CCC(=O)O)NC(C)=O)CSSC[C@@H](C(=O)N(C)CC(=O)N[C@@H](CCC(=O)O)C(N)=O)NC(=O)[C@H](CCCNC(=N)N)NC(=O)[C@H](Cc2c[nH]cn2)NC(=O)[C@H](CCC(=O)O)NC(=O)CNC(=O)[C@H](Cc2c[nH]c3ccccc23)NC(=O)[C@H](CCC(=O)O)NC(=O)[C@H](CCC(N)=O)NC(=O)[C@H](Cc2cn(C)c3ccccc23)NC1=O` [Compound 70] (Ac-EGSAYCI[Trp(1-Me)]QEWGEHRC[Sar]E-NH2; disulfide 6-16), the IC50 is below 100 nM.
With `CC[C@H](C)[C@@H]1NC(=O)[C@@H](NC(=O)[C@H](Cc2ccccc2)NC(=O)[C@H](CCC(=O)O)NC(=O)[C@H](CO)NC(C)=O)CSSC[C@@H](C(=O)N(C)CC(=O)N[C@@H](CCC(=O)O)C(=O)NCC(=O)N[C@@H](CCC(=O)O)C(=O)NCC(=O)NCC(=O)NCC(=O)N[C@@H](CCCCNC(=O)CC[C@H](NC(=O)CNC(=O)CC[C@H](NC(=O)CCCCCCCCCCCCCCCCC(=O)O)C(=O)O)C(=O)O)C(N)=O)NC(=O)[C@H](CCCNC(=N)N)NC(=O)[C@H](Cc2c[nH]cn2)NC(=O)[C@H](CCC(=O)O)NC(=O)CNC(=O)[C@H](Cc2c[nH]c3ccccc23)NC(=O)[C@H](CC(=O)O)NC(=O)[C@H](CCC(N)=O)NC(=O)[C@H](Cc2cn(C)c3ccccc23)NC1=O` [Compound 129] (Ac-SEFCI[Trp(1-Me)]QDWGEHRC[Sar]EGEGGGK([γGlu-Gly-γGlu-C18 diacid])-NH2; disulfide 4-14), the IC50 was below 100 nM.
Turning to `CC[C@H](C)[C@H](NC(=O)CNC(=O)[C@H](CCCCN)NC(=O)[C@H](CCC(=O)O)NC(C)=O)C(=O)N[C@H]1CSSC[C@@H](C(=O)N[C@H](C(=O)N[C@@H](CCC(=O)O)C(=O)N[C@@H](CCCCN)C(=O)N2CCC[C@H]2C(N)=O)[C@@H](C)O)NC(=O)[C@H](CCCNC(=N)N)NC(=O)[C@H](Cc2c[nH]cn2)NC(=O)[C@H](CCC(=O)O)NC(=O)CNC(=O)[C@H](Cc2c[nH]c3ccccc23)NC(=O)[C@H](CC(=O)O)NC(=O)[C@H](CCC(N)=O)NC(=O)[C@H](Cc2c[nH]c3ccccc23)NC(=O)[C@H]([C@@H](C)CC)NC1=O` [Compound 38] (Ac-EKGICIWQDWGEHRCTEKP-NH2; disulfide 5-15), the IC50 is below 250 nM.
For the compound `CC[C@H](C)[C@@H]1NC(=O)[C@@H](NC(=O)[C@H](Cc2ccccc2)NC(=O)[C@H](CCC(=O)O)NC(C)=O)CSSC[C@@H](C(=O)N(C)CC(=O)N[C@@H](CCC(=O)O)C(=O)N[C@@H](C)C(=O)NCCOCCOCC(=O)NCCOCCOCC(=O)N[C@@H](CCCCNC(=O)CC[C@H](NC(=O)CNC(=O)CC[C@H](NC(=O)CCCCCCCCCCCCCCCCC(=O)O)C(=O)O)C(=O)O)C(N)=O)NC(=O)[C@H](CCCNC(=N)N)NC(=O)[C@H](Cc2c[nH]cn2)NC(=O)[C@H](CCC(=O)O)NC(=O)CNC(=O)[C@H](Cc2c[nH]c3ccccc23)NC(=O)[C@H](CC(=O)O)NC(=O)[C@H](CCC(N)=O)NC(=O)[C@H](Cc2cn(C)c3ccccc23)NC1=O` [Compound 145] (Ac-EFCI[Trp(1-Me)]QDWGEHRC[Sar]EA[AEEA][AEEA]K([γGlu-Gly-γGlu-C18 diacid])-NH2; disulfide 3-13), the IC50 was below 100 nM.
In the case of `CC[C@H](C)[C@@H]1NC(=O)[C@@H](NC(=O)[C@H](Cc2ccc(O)cc2)NC(=O)[C@H](C)NC(=O)[C@H](CO)NC(=O)CNC(=O)[C@H](CCC(=O)O)NC(C)=O)CSSC[C@@H](C(=O)N(C)CC(=O)N[C@@H](CCC(=O)O)C(=O)NCC(=O)N[C@@H](CCCCN)C(=O)N[C@@H](CCCCNC(=O)CC[C@H](NC(=O)CNC(=O)CC[C@H](NC(=O)CCCCCCCCCCCCCCCCC(=O)O)C(=O)O)C(=O)O)C(N)=O)NC(=O)[C@H](CCCNC(=N)N)NC(=O)[C@H](Cc2c[nH]cn2)NC(=O)[C@H](CCC(=O)O)NC(=O)CNC(=O)[C@H](Cc2c[nH]c3ccccc23)NC(=O)[C@H](CC(=O)O)NC(=O)[C@H](CCC(N)=O)NC(=O)[C@H](Cc2cn(C)c3ccccc23)NC1=O` [Compound 110] (Ac-EGSAYCI[Trp(1-Me)]QDWGEHRC[Sar]EGKK([γGlu-Gly-γGlu-C18 diacid])-NH2; disulfide 6-16) it was below 250 nM.

Values taken from patent US11965039B2, “Compstatin analogues and their medical uses” (priority 2018, dated 2024).
